Results taken from PMC3793977, “High-Throughput Screening (HTS) and Hit Validation to Identify Small Molecule Inhibitors with Activity against NS3/4A proteases from Multiple Hepatitis C Virus Genotypes” (PLoS ONE, 2013).
Several values for one entry are separate records, joined by “and”; a condition that tells them apart may be missing. Identical values can stand only once.

What was measured:
Type in all cases: biochemical
NS3 protease domain = molecular target: T1, NS3 protease domain (Hepatitis C virus genotype 1b, UniProt Q9WMX2); experiment: Fluorescence enzymatic assay with NS3 protease domain alone; settings: NS3/4A protease domain only; read-out: IC50 NS3 protease domain
T1 construct: the full-length NS3/4A and the NS3/4A protease domain alone
Procedure: A series of compound concentrations (0 to 200 µM final concentration at 2-fold serial dilution) in 100% DMSO were prepared in a 384-well plate. 20 µL of enzyme solution was distributed to wells, and 0.5 µL of varying concentration of compounds were added and incubated for 5 minutes. The enzyme reaction was initiated by adding 5 µL of the substrate, and its activity was continuously monitored for 6 minutes. The IC50 values were calculated by fitting with the Hill equation (1), with OriginPro 8.5 (OriginLab, Inc.) where y is percent inhibition, x is inhibitor concentration, n is the slope of the concentration–response curve (Hill slope), and Vmax is maximal inhibition from two to four independent assays. [drawing 1] (1)

[1] = molecular target: T2, HCV replicon cell lysate sg 1b (NS3) (Hepatitis C virus genotype 1b, UniProt Q9WMX2); experiment: Whole cell lysate inhibition assay, HCV subgenomic replicon 1b
T2 construct: host or cells: Huh7 Clone B cells stably replicating an HCV 1b subgenomic replicon; whole cell lysate
Procedure: Huh7-1 cells (also known as Huh7/scr cells) were obtained from F.V. Chisari (The Scripps Research Institute, La Jolla, CA). Clone B HCV sub-genotype 1b Huh7 cells were obtained from the NIH AIDS Research and Reference Reagent Program and have been previously described. Huh7 cells stably replicating the sub-genotype 2a HCV JFH-1 replicon were generated as previously described. All cells were cultured in complete Dulbecco’s modified Eagle’s medium (DMEM) supplemented with 10% fetal bovine serum, 100 units/mL penicillin, […] streptomycin, and 2 mM L-glutamine. HCV replicon cells were maintained in 500 µg/mL Geneticin (Invitrogen). For NS3 inhibition analysis, lysates from parental Huh7 cells and HCV replicon cells were harvested on ice in pre-chilled FRET cell lysis buffer (50 mM Tris-HCl, pH 7.5; 150 mM NaCl, 2 mM EDTA, 1.25% Triton X-100). Lysates were brought to room temperature and mixed 1∶1 with 2× FRET assay buffer (100 mM Tris-HCl, pH 7.5, 300 mM NaCl, 4 mM EDTA, 2.5% Triton X-100, 10 mM GSH, and 4 µM substrate). Fluorescence intensity was continuously monitored for 1 hour, and IC50 values were determined in the same way as biochemical assays.

[2] = molecular target: T3, full-length NS3/4A genotype 1b mutant V36M (Hepatitis C virus genotype 1b, UniProt Q9WMX2, V1062M); experiment: Inhibition assay with drug-resistant mutant V36M; settings: genotype 1b full-length mutant
T3 construct: wild-type HCV NS3 (HCV polyprotein residues 1027–1657); His-tag (N); made in house
Procedure: (§1) The full-length genes of wild-type HCV NS3 (HCV polyprotein residues 1027–1657) with a his-tag at the N-terminus and NS4A (residues 1658–1711) with no tag were cloned, co-expressed, and purified as described. Eight NS3 drug resistant mutants (V36M, V36A, T54A, R155K, R155T, A156T, A156S, and 156V) were generated by mutagenesis using full-length, wild-type NS3-containing recombinant plasmid (pETDuet-1/FL NS3/4A) as a template. The over-expression and purification of all mutants were performed by the same method as the wild-type with minor modifications.
(§2) The inhibitory activity of the final hit compounds from HTS were tested against three other HCV genotypes (1a, 2a, and 4d), along with a control (genotype 1b) and five NS3 drug-resistant mutants. Eight full-length NS3 mutants (V36M, R155K, A156T, A156S, 156V, V36A, T54A, and R155T) were generated by mutagenesis and purified, and the three HCV NS3/4A protease genotypes were purchased from Anaspec. Unfortunately the enzyme activities of the three mutants V36A, T54A, and R155T were much less than that of the rest of the mutants and were insufficient for testing, therefore mutant studies were done with the five active mutants. Continuous kinetic assays were performed against all hit compounds in the same way as the wild-type NS3/4A. […]

[3] = molecular target: T4, full-length NS3/4A genotype 1b mutant A156T (Hepatitis C virus genotype 1b, UniProt Q9WMX2, A1182T); experiment: Inhibition assay with drug-resistant mutant A156T
T4 construct: wild-type HCV NS3 (HCV polyprotein residues 1027–1657); His-tag (N); made in house
Procedure: as §1, §2

[4] = molecular target: T5, full-length NS3/4A genotype 1b mutant A156S (Hepatitis C virus genotype 1b, UniProt Q9WMX2, A1182S); experiment: Inhibition assay with drug-resistant mutant A156S
T5 construct: wild-type HCV NS3 (HCV polyprotein residues 1027–1657); His-tag (N); made in house
Procedure: as §1, §2

[5] = molecular target: NS3/4A protease genotype 4d (Hepatitis C virus subtype 4d, UniProt Q1ZZ56); experiment: Inhibition assay with NS3/4A from genotype 4d
Procedure: The inhibitory activity of the final hit compounds from HTS were tested against three other HCV genotypes (1a, 2a, and 4d), along with a control (genotype 1b) and five NS3 drug-resistant mutants. Eight full-length NS3 mutants (V36M, R155K, A156T, A156S, 156V, V36A, T54A, and R155T) were generated by mutagenesis and purified, and the three HCV NS3/4A protease genotypes were purchased from Anaspec. Unfortunately the enzyme activities of the three mutants V36A, T54A, and R155T were much less than that of the rest of the mutants and were insufficient for testing, therefore mutant studies were done with the five active mutants. Continuous kinetic assays were performed against all hit compounds in the same way as the wild-type NS3/4A. As a control, full-length NS3/4A (genotype 1b) was tested under the same conditions for direct comparison for each plate.

Structure (SMILES): Cc1cc(NC(=O)Cc2csc(NS(=O)(=O)c3ccccc3)n2)ccc1Br [Compound 12]
- IC50 (NS3 protease domain): 9.3 ± 1.6 µM
- fold increase of IC50, whole cell lysate 1b vs biochemical assay ([1]; sg1b lysate compared to purified enzyme): 10–20 fold
- IC50 ([1]; whole cell lysate, subgenomic replicon 1b): < 120 µM and 29.3 µM
- IC50 [2]: ≤ 20 µM
- IC50 [3]: ≤ 20 µM
- IC50 [4]: ≤ 20 µM
- IC50 [5]: < 20 µM
